In patent US5811405A (Hoechst Aktiengesellschaft, priority 1996, dated 1998):

Experiments:
[1] = test system: adhesion of leukocytes to the endothelium; experiment: Leukocyte adhesion in vivo (intravital microscopy on the rat mesentery, LPS-induced); details: 10 mg/kg i.v., SPRD(m) rat, LPS 15 mg/kg 15 min after test substance; vs untreated controls
From the text: Leukocyte adhesion--Examination of the efficacy of the compounds according to the invention in vivo (intravital microscopy on the rat):
The induced adhesion of leukocytes is quantified in the rat mesentery using an intravital microscopic investigation technique (Atherton A. and Born G. V. R., Quantitative investigations of the adhesiveness of circulating polymorphonuclear leukocytes to blood vessel walls. J. Physiol. 222, 447-474, 1972); herein incorporated by reference. A prolonged anesthesia is instituted, under inhalation anesthesia with ether, by injecting urethane ([…] of body weight) intramuscularly. Blood vessels (femoral vein for injection of substances and carotid artery for measuring blood pressure) are exposed by dissection and catheters are then tied into them. After that, the corresponding transparent tissue (mesentery) is exposed spread out on a microscope stage and overlaid with paraffin oil at 37° C. […] The resulting increase in the adhesion of leukocytes to the endothelium is quantified directly by means of vital microscopy or using fluorescence dyes. […] The number of rolling leukocytes (i.e. all leukocytes which are visibly rolling and which are slower than the flowing erythrocytes) and the number of leukocytes which are adhering to the endothelium (dwell time longer than 5 seconds) are recorded every 10 minutes for a period of 60 minutes. […]

P selectin = target: T1, P selectin (Homo sapiens, UniProt P16109); experiment: HL60 cell adhesion assay on recombinant, soluble P selectin-IgG1 fusion protein; assay type: cell-based; details: HL60 cells
T1 construct: formed from the extracytoplasmic domain of either E selectin or P selectin; made in house; culture supernatant, captured on anti-human IgG
T1 sequence (P16109 42-771): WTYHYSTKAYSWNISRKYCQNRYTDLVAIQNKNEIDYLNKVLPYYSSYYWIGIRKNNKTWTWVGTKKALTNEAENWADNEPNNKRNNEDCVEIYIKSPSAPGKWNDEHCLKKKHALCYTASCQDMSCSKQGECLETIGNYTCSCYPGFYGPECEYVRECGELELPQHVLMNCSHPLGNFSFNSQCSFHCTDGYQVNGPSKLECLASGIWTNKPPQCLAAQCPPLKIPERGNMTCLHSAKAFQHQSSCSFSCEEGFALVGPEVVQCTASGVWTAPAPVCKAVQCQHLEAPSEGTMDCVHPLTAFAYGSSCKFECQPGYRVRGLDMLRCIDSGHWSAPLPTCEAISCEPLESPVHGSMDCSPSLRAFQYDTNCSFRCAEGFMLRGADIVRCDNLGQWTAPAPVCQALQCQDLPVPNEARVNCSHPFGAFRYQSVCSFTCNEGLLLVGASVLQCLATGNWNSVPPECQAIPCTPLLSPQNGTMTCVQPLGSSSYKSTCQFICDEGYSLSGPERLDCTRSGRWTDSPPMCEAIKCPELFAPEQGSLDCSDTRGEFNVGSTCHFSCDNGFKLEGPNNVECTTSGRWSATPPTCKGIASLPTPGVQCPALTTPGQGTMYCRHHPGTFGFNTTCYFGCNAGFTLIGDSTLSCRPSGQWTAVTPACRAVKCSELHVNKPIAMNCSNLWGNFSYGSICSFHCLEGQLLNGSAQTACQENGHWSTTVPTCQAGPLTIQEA
From the text: (§1) Primary assays for investigating the effect of the compounds according to the present invention on the adherence of cells to recombinant, soluble selectin fusion proteins.
(§2) In order to test the efficacy of the compounds according to the invention of the interaction between the E and P selectins (old nomenclature, ELAM-1 and GMP-140, respectively) and their ligands, an assay is used which is in each case specific for only one of these interactions. The ligands are presented in their natural form as surface structures on promyelocytic HL60 cells. […] Recombinantly prepared soluble fusion proteins, formed from the extracytoplasmic domain of either E selectin or P selectin and the constant region of a human immunoglobulin of the IgG1 subclass, were used as binding partners.
Preparation of P selectin-IgG1
The gene construct "CD62Rg", published by Aruffo et al., 1991, is used to prepare the soluble P selectin-IgG1 fusion protein. The subsequent procedure corresponds to the preparation of L selectin-IgG1 which was described in A1. Aruffo, A., Kolanus, W., Walz, G., Fredman, P. and Seed, B. 1991. CD62/-P-Selectin recognition of myeloid and tumor cell sulfatides. Cell 67, 35-44. […]
7. The quantity of BCECF-AM-labeled cells adhering in the wells is measured in a cytofluorimeter (Millipore) at a sensitivity setting of 4, an excitation wavelength of 485/22 nm and an emission wavelength of 530/25 nm.

E selectin = target: T2, E selectin (Homo sapiens, UniProt P16581); experiment: HL60 cell adhesion assay on recombinant, soluble E selectin-IgG1 fusion protein; assay type: cell-based; details: HL60 cells
T2 construct: formed from the extracytoplasmic domain of either E selectin or P selectin; made in house; host or cells: COS-7 cells (ATCC), transient transfection with DEAE dextran; secreted into culture supernatant, captured on anti-human IgG
T2 sequence (P16581 22-556): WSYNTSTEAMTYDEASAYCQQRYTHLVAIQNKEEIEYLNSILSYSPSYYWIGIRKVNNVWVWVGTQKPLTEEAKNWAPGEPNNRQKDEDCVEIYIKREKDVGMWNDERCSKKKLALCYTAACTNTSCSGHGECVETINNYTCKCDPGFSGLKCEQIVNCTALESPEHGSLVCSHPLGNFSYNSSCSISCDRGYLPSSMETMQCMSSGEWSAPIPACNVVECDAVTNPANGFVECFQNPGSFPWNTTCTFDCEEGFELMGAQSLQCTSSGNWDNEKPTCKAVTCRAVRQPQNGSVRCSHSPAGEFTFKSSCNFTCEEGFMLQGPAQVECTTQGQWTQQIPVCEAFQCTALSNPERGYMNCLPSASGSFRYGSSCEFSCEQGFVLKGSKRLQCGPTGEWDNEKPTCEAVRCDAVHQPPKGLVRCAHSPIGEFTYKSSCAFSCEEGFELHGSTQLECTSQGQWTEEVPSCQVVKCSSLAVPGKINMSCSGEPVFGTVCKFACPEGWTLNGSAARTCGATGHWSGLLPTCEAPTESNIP
From the text: as §1, §2
Preparation of L selektin-IgG1
The gene construct "ELAM-Rg", published by Walz et al., 1990, was used to prepare soluble […] fusion protein.
For the purposes of expression, the plasmid DNA was transfected into COS-7 cells (ATCC) using DEAE dextran (molecular biological methods: see Ausubel, F. M., Brent, R., Kingston, R. E., Moore, D. D., Seidman, J. G., Struhl, K. and Smith, J. A. 1990. Current Protocols in Molecular Biology, John Wiley, New York). […]

selectin receptors = details: all known in-vitro test systems; Jacob et al., 1995; read-out: IC50 (inhibition of cell adhesion to selectin receptors); cited from earlier work
[2] = test system: myocardial reperfusion injuries; details: M. Buerke et al., 1994; cited from earlier work
neutrophil adhesion = experiment: Reperfusion model on the open rabbit heart (Langendorff), leukocyte accumulation and arrhythmias; details: perfused rabbit heart, 30 min ischemia, 30 min reperfusion; vs untreated hearts
Experimental: Reperfusion model for investigating the influence of neutrophil adhesion in the course of ischemialreperfusion carried out on the open rabbit heart.
The hearts are perfused with nutrient solution, and also with/without leukocytes and/or active compound, at constant pressure using the Langendorff technique. After that, an ischemia is elicited by ligating the left coronary artery (30 min). Following reperfusion (30 min), the accumulation of leukocytes is evaluated histologically. During the course of the experiment, potentials and arrhythmias are measured at 256 electrodes (total duration of the experiment, approx. 90 min). […] The compounds according to the present invention, and also their physiologically tolerated salts, are very well suited, owing to their valuable pharmacological properties, for use as medicines in mammals, in particular humans.

For C[C@@H]1O[C@@H](O[C@H](COCCCCCC(C(=O)O)C(=O)O)[C@@H](COCCCCCC(C(=O)O)C(=O)O)O[C@@H]2O[C@@H](C)[C@@H](O)[C@@H](O)[C@@H]2O)[C@@H](O)[C@H](O)[C@@H]1O [Compound 6a, 1,4-bis(5-malonyl-1-pentyloxy)-2,3-bis(α-L-fucopyranosyl)-D-threitol], the “inhibition (of leukocyte adhesion)” value [1] was 39%, the IC50 (P selectin) was 3.5 to 4.1 mM and the IC50 (E selectin) was 0.5 to 1.5 mM.

For sialyl Lewis X [SLeX], the IC50 (selectin receptors) is listed as roughly 1 mM and the “use in animal experiments, myocardial reperfusion injuries” value [2] is listed as “used successfully”.

For chondroitin sulfate, the arrhythmias (neutrophil adhesion) was “fewer arrhythmias” and the leukocyte accumulation (neutrophil adhesion) was “less leukocyte accumulation”.
